Results taken from patent US12383571B2, “Method for enhancing tyrosinase inhibitory activity” (Jiangnan University, priority 2019, dated 2025).

System: tyrosinase
Assay: Determination of tyrosinase activity by spectrophotometry (L-dopa substrate, 475 nm)
Type: biochemical
Settings: single phenolic acid at 5 mM, other conditions as Example 1 (1.0 mg/mL protodioscin, 150° C. 30 min)
Description: A determining method of tyrosinase activity: spectrophotometry is employed, 2.8 ml of 2.5 mM L-dopa solution is taken as a substrate, 100 μL of treated inhibitor solution is taken, then 100 μL of 0.2 mg/mL tyrosinase solution is added for incubation at 30° C. for 15 min, and then a change in its light absorption value is measured at 475 nm, and taking tyrosinase activity without an inhibitor as 100%, a calculation formula is as follows: tyrosinase relative activity/%=(B2−B1)/(A2−A1)×100,
Where A1 and A2 represent light absorption values of a blank group at 0 min and 15 min, and B1 and B2 represent light absorption values of a sample at 0 min and 15 min. • 2.

| SMILES | tyrosinase relative activity (%) |
| --- | --- |
| O=C(O)C=Cc1ccccc1 [cinnamic acid] | 102.32% |
| COc1cc(-c2oc3cc(O)cc(O)c3c(=O)c2O)ccc1O [isorhamnetin] | 82.52% |

More lines, now with the values ahead:

| tyrosinase relative activity (%) | SMILES |
| --- | --- |
| 107.56% | COc1cc(/C=C/C(=O)O)ccc1O [ferulic acid] |
| 97.25% | O=C(O)c1cc(O)c(O)c(O)c1 [gallic acid] |
| 80.69% | O=c1c(O)c(-c2ccc(O)c(O)c2)oc2cc(O)cc(O)c12 [quercetin] |
